Data as given in patent US20180098959A1, “METHODS FOR TREATING CANCER” (BOSTON BIOMEDICAL, INC., priority 2015, published 2018).

Key:
FaDu sphere cultures = experiment: qPCR cancer stem cell array, gene expression after treatment; assay type: cell-based; parameters: % Change ATM gene expression / % Change WEE1 gene expression / % Change ACTB gene expression / % Change MERTK gene expression / % Change FGFR2 gene expression / % Change EPCAM gene expression / % Change NOTCH2 gene expression / % Change DDR1 gene expression / % Change STAT3 gene expression / % Change LATS1 gene expression / % Change GSK3B gene expression / % Change TWIST2 gene expression / % Change ITGA2 gene expression / % Change ENG gene expression / % Change PLAUR gene expression / % Change SMO gene expression / % Change DACH1 gene expression / % Change EGF gene expression / % Change TGFBR1 gene expression / % Change ALCAM gene expression / % Change ALDH1A1 gene expression / % Change MAML1 gene expression / % Change HDAC1 gene expression / % Change RPLP0 gene expression / % Change WWC1 gene expression / % Change CD44 gene expression / % Change TAZ gene expression / % Change ITGA6 gene expression / % Change HPRT1 gene expression / % Change JAG1 gene expression / % Change ITGB1 gene expression / % Change IKBKB gene expression / % Change ID1 gene expression / % Change AXL gene expression / % Change DNMT1 gene expression / % Change ITGA4 gene expression / % Change KITLG gene expression / % Change ETFA gene expression / % Change IL8 gene expression / % Change JAK2 gene expression / % Change FOXP1 gene expression / % Change MYC gene expression / % Change NANOG gene expression / % Change YAP1 gene expression / % Change FLOT2 gene expression / % Change KLF17 gene expression / % Change BMI1 gene expression / % Change CHEK1 gene expression / % Change CD34 gene expression / % Change NOTCH1 gene expression / % Change LIN28A gene expression / % Change ATXN1 gene expression / % Change MUC1 gene expression / % Change POU5F1 gene expression / % Change ERBB2 gene expression / % Change CD24 gene expression / % Change PECAM1 gene expression / % Change SIRT1 gene expression / % Change NFKB1 gene expression: dose or concentration left out as unconfirmed
Experimental: Changes in gene expression following treatment with 2-acetylnaphtho[2,3-b]furan-4,9-dione were evaluated using a cancer stem cell PCR array.
FaDu sphere cultures were treated for 6 hours with DMSO (control) or 2-acetylnaphtho[2,3-b]furan-4,9-dione at 2 mM. RNA was isolated, reversed transcribed, and the resulting cDNA was analyzed using a qPCR cancer stem cell array. Glyceraldehyde 3-phosphate dehydrogenase (GAPDH) was used as a housekeeping gene to normalize the data.

hepatocellular carcinoma = experiment: combination with FOLFOX, hepatocellular carcinoma patients; assay type: in vivo, human; details: Chemo Backbone FOLFOX
Experimental: The effects of 2-acetylnaphtho[2,3-b]furan-4,9-dione in combination with FOLFOX were assessed in adult patients with hepatocellular carcinoma in a clinical study.
Patients who were pretreated with 1 and 4 lines of prior treatment, respectively, received oral administration of 2-acetylnaphtho[2,3-b]furan-4,9-dione twice daily together with FOLFOX. For example, 2-acetylnaphtho[2,3-b]furan-4,9-dione was administered at a dose of 240 mg BID in combination with FOLFOX. Oxaliplatin 85 mg/m^2 together with leucovorin 400 mg/m^2 were administered intravenously. 5-FU 400 mg/m^2 bolus was administered intravenously immediately following oxaliplatin/leucovorin infusion, followed by 5-FU 1200 mg/m^2/day (total 2400 mg/m^2 over 46-48 hours) continuous intravenous infusion. This regimen was repeated every 14 days thereafter or until progression of disease, unacceptable toxicity, or other discontinuation criterion was met.

[1] = FaDu sphere cultures, 6 hours, GAPDH-normalized, vs DMSO control

CC(=O)c1cc2c(o1)C(=O)c1ccccc1C2=O [2-acetylnaphtho[2,3-b]furan-4,9-dione]
% Change ACTB gene expression (FaDu sphere cultures; [1]): −24.49%
% Change ALCAM gene expression (FaDu sphere cultures; [1]): −36.13%
% Change ALDH1A1 gene expression (FaDu sphere cultures; [1]): −18.18%
% Change ATM gene expression (FaDu sphere cultures; [1]): −68.65%
% Change ATXN1 gene expression (FaDu sphere cultures; [1]): −45.26%
% Change AXL gene expression (FaDu sphere cultures; [1]): −48.50%
% Change B2M gene expression (FaDu sphere cultures; [1]): −27.69%
% Change BMI1 gene expression (FaDu sphere cultures; [1]): −47.40%
% Change CD24 gene expression (FaDu sphere cultures; [1]): −26.46%
% Change CD34 gene expression (FaDu sphere cultures; [1]): −88.18%
% Change CD44 gene expression (FaDu sphere cultures; [1]): −35.44%
% Change CHEK1 gene expression (FaDu sphere cultures; [1]): −28.88%
% Change DACH1 gene expression (FaDu sphere cultures; [1]): −36.55%
% Change DDR1 gene expression (FaDu sphere cultures; [1]): −38.59%
% Change DNMT1 gene expression (FaDu sphere cultures; [1]): −32.09%
% Change EGF gene expression (FaDu sphere cultures; [1]): −19.07%
% Change ENG gene expression (FaDu sphere cultures; [1]): −37.62%
% Change EPCAM gene expression (FaDu sphere cultures; [1]): −22.87%
% Change ERBB2 gene expression (FaDu sphere cultures; [1]): −43.81%
% Change ETFA gene expression (FaDu sphere cultures; [1]): −31.12%
% Change FGFR2 gene expression (FaDu sphere cultures; [1]): −41.18%
% Change FLOT2 gene expression (FaDu sphere cultures; [1]): −29.19%
% Change FOXP1 gene expression (FaDu sphere cultures; [1]): −29.76%
% Change GSK3B gene expression (FaDu sphere cultures; [1]): −38.06%
% Change HDAC1 gene expression (FaDu sphere cultures; [1]): −36.10%
% Change HPRT1 gene expression (FaDu sphere cultures; [1]): −33.81%
% Change ID1 gene expression (FaDu sphere cultures; [1]): −12.68%
% Change IKBKB gene expression (FaDu sphere cultures; [1]): −32.11%
% Change IL8 gene expression (FaDu sphere cultures; [1]): −7.62%
% Change ITGA2 gene expression (FaDu sphere cultures; [1]): −60.71%
% Change ITGA4 gene expression (FaDu sphere cultures; [1]): −11.52%
% Change ITGA6 gene expression (FaDu sphere cultures; [1]): −54.63%
% Change ITGB1 gene expression (FaDu sphere cultures; [1]): −50.45%
% Change JAG1 gene expression (FaDu sphere cultures; [1]): −14.24%
% Change JAK2 gene expression (FaDu sphere cultures; [1]): −47.94%
% Change KITLG gene expression (FaDu sphere cultures; [1]): −47.99%
% Change KLF17 gene expression (FaDu sphere cultures; [1]): −90.18%
% Change LATS1 gene expression (FaDu sphere cultures; [1]): −60.75%
% Change LIN28A gene expression (FaDu sphere cultures; [1]): −87.52%
% Change MAML1 gene expression (FaDu sphere cultures; [1]): −52.82%
% Change MERTK gene expression (FaDu sphere cultures; [1]): −65.78%
% Change MUC1 gene expression (FaDu sphere cultures; [1]): −27.42%
% Change MYC gene expression (FaDu sphere cultures; [1]): −3.91%
% Change NANOG gene expression (FaDu sphere cultures; [1]): −93.34%
% Change NFKB1 gene expression (FaDu sphere cultures; [1]): −25.54%
% Change NOTCH1 gene expression (FaDu sphere cultures; [1]): −46.24%
% Change NOTCH2 gene expression (FaDu sphere cultures; [1]): −64.37%
% Change PECAM1 gene expression (FaDu sphere cultures; [1]): −70.26%
% Change PLAUR gene expression (FaDu sphere cultures; [1]): −20.64%
% Change POU5F1 gene expression (FaDu sphere cultures; [1]): −77.31%
% Change RPLP0 gene expression (FaDu sphere cultures; [1]): −17.48%
% Change SIRT1 gene expression (FaDu sphere cultures; [1]): −43.35%
% Change SMO gene expression (FaDu sphere cultures; [1]): −55.56%
% Change STAT3 gene expression (FaDu sphere cultures; [1]): −22.87%
% Change TAZ gene expression (FaDu sphere cultures; [1]): −15.09%
% Change TGFBR1 gene expression (FaDu sphere cultures; [1]): −53.34%
% Change TWIST2 gene expression (FaDu sphere cultures; [1]): −21.59%
% Change WEE1 gene expression (FaDu sphere cultures; [1]): −42.86%
% Change WWC1 gene expression (FaDu sphere cultures; [1]): −51.64%
% Change YAP1 gene expression (FaDu sphere cultures; [1]): −47.45%
expression of cancer stem cell markers and genes such as Nanog, Axl, Atm, and Bmi-1 (FaDu sphere cultures; cancer stem cell PCR array): downregulated
Best Response, regression (hepatocellular carcinoma; Patient 0089, BBI608 240 mg bid, 1 prior line): 9%
Best Response, regression (hepatocellular carcinoma; Patient 0121, BBI608 240 mg bid, 4 prior lines): 9%
